In PubChem BioAssay (NCI):
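Grown in 96-well plates, cells were treated for 48 hours with each compound at five concentrations. Insufficient inhibition: endpoint recorded as highest concentration tested. The concentration for full growth arrest is given as TGI.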

Legend:
Assay in all cases: inhibition of tumour cell growth, NCI panel, 48 h
BT-549 breast = system: BT-549 breast
A549 NSCLC = system: A549 NSCLC
KM12 colon = system: KM12 colon
NCI-H23 lung = system: NCI-H23 lung
SNB-75 CNS = system: SNB-75 CNS
SR leukemia = system: SR leukemia
DU-145 prostate = system: DU-145 prostate
UACC-257 melanoma = system: UACC-257 melanoma
HCC-2998 colon = system: HCC-2998 colon
OVCAR-3 ovarian = system: OVCAR-3 ovarian
HCT-116 colon = system: HCT-116 colon
EKVX NSCLC = system: EKVX NSCLC
HS 578T breast = system: HS 578T breast
PC-3 prostate = system: PC-3 prostate
MCF7 breast = system: MCF7 breast
M14 melanoma = system: M14 melanoma
HL-60(TB) leukemia = system: HL-60(TB) leukemia
T-47D breast = system: T-47D breast
MDA-MB-435 = system: MDA-MB-435
NCI-H226 lung = system: NCI-H226 lung
SK-MEL-2 melanoma = system: SK-MEL-2 melanoma
SW-620 colon = system: SW-620 colon
A498 renal = system: A498 renal
TK-10 renal = system: TK-10 renal
HT29 colon = system: HT29 colon
UACC-62 melanoma = system: UACC-62 melanoma
OVCAR-8 ovarian = system: OVCAR-8 ovarian
LOX IMVI melanoma = system: LOX IMVI melanoma
RPMI-8226 leukemia = system: RPMI-8226 leukemia
MOLT-4 leukemia = system: MOLT-4 leukemia
RXF 393 renal = system: RXF 393 renal
IGROV1 ovarian = system: IGROV1 ovarian
U251 CNS = system: U251 CNS
HOP-62 NSCLC = system: HOP-62 NSCLC
CAKI-1 renal = system: CAKI-1 renal
CCRF-CEM leukemia = system: CCRF-CEM leukemia
COLO 205 colon = system: COLO 205 colon
SF-268 CNS = system: SF-268 CNS
HOP-92 NSCLC = system: HOP-92 NSCLC
MDA-N = system: MDA-N
NCI-H460 lung = system: NCI-H460 lung
OVCAR-5 ovarian = system: OVCAR-5 ovarian
NCI-H522 lung = system: NCI-H522 lung
HCT-15 colon = system: HCT-15 colon
NCI/ADR-RES ovarian = system: NCI/ADR-RES ovarian
ACHN renal = system: ACHN renal
MDA-MB-231 breast = system: MDA-MB-231 breast
K-562 leukemia = system: K-562 leukemia
OVCAR-4 ovarian = system: OVCAR-4 ovarian
786-0 renal = system: 786-0 renal
SF-295 CNS = system: SF-295 CNS
SN12C renal = system: SN12C renal
UO-31 renal = system: UO-31 renal
SNB-19 CNS = system: SNB-19 CNS
SF-539 CNS = system: SF-539 CNS
SK-MEL-5 melanoma = system: SK-MEL-5 melanoma
SK-OV-3 ovarian = system: SK-OV-3 ovarian
MALME-3M melanoma = system: MALME-3M melanoma
SK-MEL-28 melanoma = system: SK-MEL-28 melanoma

**Q.** What does the source list for `O=P(O)(O)CN1CCN(CP(=O)(O)O)CCN(CP(=O)(O)O)CCN(CP(=O)(O)O)CC1`?
**A.** TGI (BT-549 breast): > 100 µM; TGI (A549 NSCLC): > 100 µM; TGI (KM12 colon): > 100 µM; TGI (NCI-H23 lung): > 100 µM; TGI (SNB-75 CNS): > 100 µM; TGI (SR leukemia): 95.9 µM; TGI (DU-145 prostate): > 100 µM; TGI (UACC-257 melanoma): > 100 µM; TGI (HCC-2998 colon): > 100 µM; TGI (OVCAR-3 ovarian): > 100 µM; TGI (HCT-116 colon): > 100 µM; TGI (EKVX NSCLC): > 100 µM; TGI (HS 578T breast): > 100 µM; TGI (PC-3 prostate): > 100 µM; TGI (MCF7 breast): > 100 µM; TGI (M14 melanoma): > 100 µM; TGI (HL-60(TB) leukemia): 72.4 µM; TGI (T-47D breast): > 100 µM; TGI (MDA-MB-435): > 100 µM; TGI (NCI-H226 lung): > 100 µM; TGI (SK-MEL-2 melanoma): > 100 µM; TGI (SW-620 colon): > 100 µM; TGI (A498 renal): > 100 µM; TGI (TK-10 renal): > 100 µM; TGI (HT29 colon): > 100 µM; TGI (UACC-62 melanoma): > 100 µM; TGI (OVCAR-8 ovarian): > 100 µM; TGI (LOX IMVI melanoma): > 100 µM; TGI (RPMI-8226 leukemia): 93.5 µM; TGI (MOLT-4 leukemia): > 100 µM; TGI (RXF 393 renal): > 100 µM; TGI (IGROV1 ovarian): > 100 µM; TGI (U251 CNS): > 100 µM; TGI (HOP-62 NSCLC): > 100 µM; TGI (CAKI-1 renal): > 100 µM; TGI (CCRF-CEM leukemia): > 100 µM; TGI (COLO 205 colon): > 100 µM; TGI (SF-268 CNS): > 100 µM; TGI (HOP-92 NSCLC): > 100 µM; TGI (MDA-N): > 100 µM; TGI (NCI-H460 lung): > 100 µM; TGI (OVCAR-5 ovarian): > 100 µM; TGI (NCI-H522 lung): > 100 µM; TGI (HCT-15 colon): 77.7 µM; TGI (NCI/ADR-RES ovarian): > 100 µM; TGI (ACHN renal): > 100 µM; TGI (MDA-MB-231 breast): > 100 µM; TGI (K-562 leukemia): > 100 µM; TGI (OVCAR-4 ovarian): > 100 µM; TGI (786-0 renal): > 100 µM; TGI (SF-295 CNS): > 100 µM; TGI (SN12C renal): > 100 µM; TGI (UO-31 renal): > 100 µM; TGI (SNB-19 CNS): > 100 µM; TGI (SF-539 CNS): > 100 µM

**Q.** Which TGI (BT-549 breast) does the source give for `CC(C)NC(=O)OCc1c(COC(=O)NC(C)C)c(-c2ccc[n+](COC(=O)CC(C)(C)C)c2)n2c1CCC2` here?
**A.** > 100 µM

**Q.** What about the TGI (SK-MEL-5 melanoma) of the same compound?
**A.** > 100 µM

**Q.** And the TGI (A549 NSCLC)?
**A.** > 100 µM

**Q.** What about the TGI (KM12 colon) of the same compound?
**A.** > 100 µM

**Q.** What about the TGI (NCI-H23 lung) of the same compound?
**A.** > 100 µM

**Q.** What about the TGI (SNB-75 CNS) of the same compound?
**A.** > 100 µM

**Q.** What about the TGI (SR leukemia) of the same compound?
**A.** > 100 µM

**Q.** And the TGI (DU-145 prostate)?
**A.** > 100 µM

**Q.** And the TGI (UACC-257 melanoma)?
**A.** > 100 µM

**Q.** And the TGI (HCC-2998 colon)?
**A.** > 100 µM

**Q.** What about the TGI (OVCAR-3 ovarian) of the same compound?
**A.** > 100 µM

**Q.** And the TGI (HCT-116 colon)?
**A.** > 100 µM

**Q.** What about the TGI (EKVX NSCLC) of the same compound?
**A.** > 100 µM

**Q.** And the TGI (HS 578T breast)?
**A.** > 100 µM

**Q.** What about the TGI (PC-3 prostate) of the same compound?
**A.** > 100 µM

**Q.** And the TGI (MCF7 breast)?
**A.** > 100 µM

**Q.** What about the TGI (M14 melanoma) of the same compound?
**A.** > 100 µM

**Q.** And the TGI (HL-60(TB) leukemia)?
**A.** > 100 µM

**Q.** What about the TGI (T-47D breast) of the same compound?
**A.** > 100 µM

**Q.** What about the TGI (MDA-MB-435) of the same compound?
**A.** > 100 µM

**Q.** What about the TGI (NCI-H226 lung) of the same compound?
**A.** > 100 µM

**Q.** What about the TGI (SK-MEL-2 melanoma) of the same compound?
**A.** > 100 µM

**Q.** And the TGI (SW-620 colon)?
**A.** > 100 µM

**Q.** What about the TGI (A498 renal) of the same compound?
**A.** > 100 µM

**Q.** What about the TGI (TK-10 renal) of the same compound?
**A.** > 100 µM

**Q.** And the TGI (HT29 colon)?
**A.** > 100 µM

**Q.** And the TGI (UACC-62 melanoma)?
**A.** > 100 µM

**Q.** What about the TGI (OVCAR-8 ovarian) of the same compound?
**A.** > 100 µM

**Q.** And the TGI (LOX IMVI melanoma)?
**A.** > 100 µM

**Q.** And the TGI (RPMI-8226 leukemia)?
**A.** > 100 µM

**Q.** And the TGI (MOLT-4 leukemia)?
**A.** > 100 µM

**Q.** And the TGI (RXF 393 renal)?
**A.** > 100 µM

**Q.** What about the TGI (IGROV1 ovarian) of the same compound?
**A.** > 100 µM

**Q.** And the TGI (U251 CNS)?
**A.** > 100 µM

**Q.** And the TGI (HOP-62 NSCLC)?
**A.** > 100 µM

**Q.** What about the TGI (CAKI-1 renal) of the same compound?
**A.** > 100 µM

**Q.** And the TGI (CCRF-CEM leukemia)?
**A.** > 100 µM

**Q.** What about the TGI (COLO 205 colon) of the same compound?
**A.** > 100 µM

**Q.** And the TGI (SF-268 CNS)?
**A.** > 100 µM

**Q.** What about the TGI (HOP-92 NSCLC) of the same compound?
**A.** > 100 µM

**Q.** And the TGI (SK-OV-3 ovarian)?
**A.** > 100 µM

**Q.** And the TGI (MDA-N)?
**A.** > 100 µM

**Q.** And the TGI (MALME-3M melanoma)?
**A.** > 100 µM

**Q.** And the TGI (NCI-H460 lung)?
**A.** > 100 µM

**Q.** And the TGI (OVCAR-5 ovarian)?
**A.** > 100 µM

**Q.** And the TGI (SK-MEL-28 melanoma)?
**A.** > 100 µM

**Q.** What about the TGI (NCI-H522 lung) of the same compound?
**A.** > 100 µM

**Q.** What about the TGI (HCT-15 colon) of the same compound?
**A.** > 100 µM

**Q.** What about the TGI (NCI/ADR-RES ovarian) of the same compound?
**A.** > 100 µM

**Q.** What about the TGI (ACHN renal) of the same compound?
**A.** > 100 µM

**Q.** What about the TGI (MDA-MB-231 breast) of the same compound?
**A.** > 100 µM

**Q.** What about the TGI (K-562 leukemia) of the same compound?
**A.** > 100 µM

**Q.** What about the TGI (OVCAR-4 ovarian) of the same compound?
**A.** > 100 µM

**Q.** And the TGI (786-0 renal)?
**A.** > 100 µM

**Q.** And the TGI (SF-295 CNS)?
**A.** > 100 µM

**Q.** What about the TGI (SN12C renal) of the same compound?
**A.** > 100 µM

**Q.** And the TGI (UO-31 renal)?
**A.** > 100 µM

**Q.** What about the TGI (SNB-19 CNS) of the same compound?
**A.** > 100 µM

**Q.** And the TGI (SF-539 CNS)?
**A.** > 100 µM
